One series concerns NE. Details: method as in Chalmers et al., 2020. The following applies: Phase 2 trial in NCFBE (WILLOW, NCT03218917), vs placebo; ref Chalmers et al., 2020; cited from earlier work.
Series [1] in a line: Plasma PK of brensocatib, BID vs QD oral dosing, Sprague Dawley rats. The following applies: both sexes, rat; for AUC(0-t): first 24 h. The class given is in vivo. On the procedure:
A dose frequency study was performed in male and female mice (C57BL/6 & BALB/c) and in male and female rats (Sprague Dawley & Wistar) investigating twice daily (BID) versus once daily (QD) brensocatib administration.
Briefly, animals were weighed and randomized into different treatment groups. In total, three different dosing levels of brensocatib were tested in each species and strain; each QD dosing level was equivalent to 1.5-times the matching daily BID dose. For BID dosing, the second daily dose was administered 8-h post the morning dose. C57BL/6 mice were dosed either BID or QD for 7 consecutive days at 0/0, 0.5/0.75, 2/3, and 20/30 mg/kg/day (BID/QD). BALB/c mice were dosed for 7 consecutive days at 0/0, 0.2/0.3, 2/3, and 20/30 mg/kg/day (BID/QD). SD rats were dosed for 9 consecutive days at 0/0, 0.2/0.3, 2/3, and 20/30 mg/kg/day (BID/QD). Wistar rats were dosed for 7 consecutive days at 0/0, 0.2/0.3, 2/3, and 20/30 mg/kg/day (BID/QD).
For sparse PK analysis via LC-MS/MS, plasma was collected from animals during the first 24 h of dosing at prescribed timepoints. The timepoints included 1, 3, 8, and 24 h post initial dose for QD groups, and 1, 3, 8, 9, 11, and 24 h post initial dose for BID groups. Note that the 8- and 24-h plasma samples were prior to the afternoon dose for BID groups and prior to the second day dose for all groups, respectively. See section Quantification of Plasma Brensocatib Concentrations for details.
Blood was collected via the tail-vein technique and centrifuged to separate and collect the plasma. The resulting plasma samples were stored at −20°C or lower until LC-MS/MS analysis.
The plasma concentration of brensocatib was quantified by liquid chromatography, tandem mass spectrometry (LC-MS/MS), a Sciex API6500 mass spectrometer (SCIEX, Framingham, MA). Two brensocatib stock solutions were prepared, one for the preparation of the 8-point standard (STD) curve spiking solutions and the other for the preparation of the quantitative control spiking solutions (QCs) at three levels. The STD curve and QCs were prepared by 2% spiking from the spiking solutions into mouse or rat plasma. The samples were extracted using a protein precipitation method, where 10 µL of sample was mixed with 100 µL of internal standard working solution (100 ng/mL ^6C13-brensocatib in methanol), vortexed for 5 s, and centrifuged at 21,130 × g at 4°C for 15 min. The supernatant was mixed with an equal volume of water and 10 μL was injected into a Phenomenex Kinetex Biphenyl column (3.0 mm × 50 mm; 2.6 μm; 65°C; 0.8 mL/min) with an elution gradient consisting of mobile phase A (10 mM ammonium formate) and mobile phase B (methanol) over 2 min from 5% to 95% B. The mass spectrometer was equipped with an atmospheric-pressure chemical ionization source operating in positive mode.
Individual plasma concentrations were plotted and the area under the curve (AUC) was calculated using the trapezoid method. The elimination rate constant (k e ) was calculated as the negative natural log of the plasma concentration over time (Eq. 1) starting at the max concentration (C max) after the most recent dose to the last measurable plasma concentration between doses. The calculated k e was used to define the half-life (t 1/2 ) based on Eq. 2; where 0.693 is the natural log of 2 and assumes a first-order reaction. ke=−ln∆C/∆t (1) t1/2=0.693/ke (2)

Read-outs that look alike come from different tables or passages of the source.

On to `Cn1c(=O)oc2ccc(-c3ccc(C[C@@H](C#N)NC(=O)[C@@H]4CNCCCO4)cc3)cc21` [brensocatib], for which the “sputum NE activity” value with NE is “dose-dependent reduction”. Besides, the half-life was roughly 8 h in series [1] (Sprague Dawley, Wistar, oral, rats (both strains), across BID and QD regimens, sparse PK, read-out: half-life (overall) (converted)); 0.55 ± 0.02 h in series [1] (Sprague-Dawley, po, 0.2 mg/kg/day, SD rats, oral BID, 0.2 mg/kg/day, evening dose, read-out: t1/2, PM dose (converted)); 5.36 ± 2.38 h in series [1] (Sprague-Dawley, po, 0.3 mg/kg/day, SD rats, oral QD, 0.3 mg/kg/day, read-out: t1/2, AM dose (converted)); 7.42 ± 1.16 h in series [1] (Sprague-Dawley, po, 2 mg/kg/day, SD rats, oral BID, 2 mg/kg/day, evening dose, read-out: t1/2, PM dose (converted)); 13.5 ± 9.16 h in series [1] (Sprague-Dawley, po, 2 mg/kg/day, SD rats, oral BID, 2 mg/kg/day, morning dose, read-out: t1/2, AM dose (converted)); 4.46 ± 0.37 h in series [1] (Sprague-Dawley, po, 3 mg/kg/day, SD rats, oral QD, 3 mg/kg/day, read-out: t1/2, AM dose (converted)). Moreover, the half-life in series [1] (Sprague-Dawley, po, 20 mg/kg/day, SD rats, oral BID, 20 mg/kg/day, evening dose, read-out: t1/2, PM dose (converted)) was 4.03 ± 0.44 h; in series [1] (Sprague-Dawley, po, 20 mg/kg/day, SD rats, oral BID, 20 mg/kg/day, morning dose, read-out: t1/2, AM dose (converted)) it was 14.1 ± 1.55 h; in series [1] (Sprague-Dawley, po, 30 mg/kg/day, SD rats, oral QD, 30 mg/kg/day, read-out: t1/2, AM dose (converted)) it was 3.88 ± 0.04 h. For the same molecule, the AUC(0-t) in series [1] (Sprague-Dawley, SD rats, oral BID, 0.2 mg/kg/day, read-out: AUC0–24h) was determined as 124 ± 81 ng·h/mL; in series [1] (Sprague-Dawley, SD rats, oral BID, 0.2 mg/kg/day, read-out: AUC(0–24)) it was 0.29 ± 0.19 µM·h; in series [1] (Sprague-Dawley, SD rats, oral BID, 2 mg/kg/day, read-out: AUC0–24h) it was 4730 ± 421 ng·h/mL; in series [1] (Sprague-Dawley, SD rats, oral BID, 2 mg/kg/day, read-out: AUC(0–24)) it was 11.2 ± 1 µM·h; in series [1] (Sprague-Dawley, SD rats, oral BID, 20 mg/kg/day, read-out: AUC0–24h), 72600 ng·h/mL; in series [1] (Sprague-Dawley, SD rats, oral BID, 20 mg/kg/day, read-out: AUC(0–24)) it was 173 ± 8.09 µM·h. Further, the AUC(0-t) in series [1] (Sprague-Dawley, SD rats, oral QD, 0.3 mg/kg/day, read-out: AUC0–24h) came to 269 ± 128 ng·h/mL; in series [1] (Sprague-Dawley, SD rats, oral QD, 0.3 mg/kg/day, read-out: AUC(0–24)), 0.64 ± 0.3 µM·h; in series [1] (Sprague-Dawley, SD rats, oral QD, 3 mg/kg/day, read-out: AUC0–24h) it was 11100 ng·h/mL; in series [1] (Sprague-Dawley, SD rats, oral QD, 3 mg/kg/day, read-out: AUC(0–24)), 26.39 ± 0.25 µM·h; in series [1] (Sprague-Dawley, SD rats, oral QD, 30 mg/kg/day, read-out: AUC0–24h) it was 104000 ng·h/mL; in series [1] (Sprague-Dawley, SD rats, oral QD, 30 mg/kg/day, read-out: AUC(0–24)) it was 248 ± 59.5 µM·h.

(Values after publication PMC10394516, “The pharmacokinetic profile of brensocatib and its effect on pharmacodynamic biomarkers including NE, PR3, and CatG in various rodent species” (Frontiers in Pharmacology, 2023).)
